# Experimental data from EP2776398B1, “SUBSTITUTED PYRAZOLYL-BASED UREA DERIVATIVES AS VANILLOID RECEPTOR LIGANDS” (Medifron DBT Inc., priority 2011, dated 2013).
# Target: T1, vanilloid receptor 1 (VR1/TRPV1 receptor) (Homo sapiens, UniProt Q8NER1)
# T1 construct: expressed in transfected cells; host or cells: CHO K1 cells (ECACC), stably transfected
# Assay: Functional testing on vanilloid receptor 1: FLIPR Ca2+ influx assay against capsaicin (Cap) in transfected CHO K1 cells (pharmacological method II); as to Ki: 100 nM capsaicin
# Assay type: cell-based
# Set-up: key to (f) Ki (human being) [nM] Cap: agonist classification: AG = agonist
# Conditions: @ 1µM; human VR1 in CHO K1 cells; capsaicin; relative to maximum inhibition with 10 µM capsazepine; read-out: inhibition (as a percentage), printed in column (f) Ki (human being) [nM] Cap
# Excerpt: […]
# T1 sequence (Q8NER1 whole entry): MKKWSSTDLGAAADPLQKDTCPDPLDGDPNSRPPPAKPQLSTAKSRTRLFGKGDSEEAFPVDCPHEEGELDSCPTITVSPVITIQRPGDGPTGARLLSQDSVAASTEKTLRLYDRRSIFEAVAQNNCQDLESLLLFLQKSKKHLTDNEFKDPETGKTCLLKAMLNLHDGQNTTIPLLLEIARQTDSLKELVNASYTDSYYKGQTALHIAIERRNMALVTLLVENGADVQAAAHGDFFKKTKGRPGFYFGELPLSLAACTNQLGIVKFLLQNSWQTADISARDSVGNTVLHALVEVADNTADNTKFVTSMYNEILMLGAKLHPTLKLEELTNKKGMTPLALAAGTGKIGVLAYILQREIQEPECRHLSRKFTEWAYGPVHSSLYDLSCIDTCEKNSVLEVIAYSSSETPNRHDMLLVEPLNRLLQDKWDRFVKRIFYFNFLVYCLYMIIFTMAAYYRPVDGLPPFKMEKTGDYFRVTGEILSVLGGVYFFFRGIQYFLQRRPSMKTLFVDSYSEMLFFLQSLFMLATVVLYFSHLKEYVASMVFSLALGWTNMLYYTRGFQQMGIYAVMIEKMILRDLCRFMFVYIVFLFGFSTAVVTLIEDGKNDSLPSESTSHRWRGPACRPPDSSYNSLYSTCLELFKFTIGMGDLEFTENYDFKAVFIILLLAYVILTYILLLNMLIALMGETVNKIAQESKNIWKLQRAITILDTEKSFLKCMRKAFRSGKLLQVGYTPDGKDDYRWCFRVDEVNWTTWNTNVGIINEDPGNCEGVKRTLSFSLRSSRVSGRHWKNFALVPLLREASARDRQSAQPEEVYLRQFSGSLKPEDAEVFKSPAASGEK
row,SMILES,inhibition at 1 µM [%]
1,"CC(C)(C)c1cc(CNC(=O)Nc2ccc(COCCO)c(F)c2)n(-c2ccc(F)cc2)n1 [A134, 1-[[5-tert-Butyl-2-(4-fluorophenyl)-2H-pyrazol-3-yl]-methyl]-3-[3-fluoro-4-(2-hydroxy-ethoxy-methyl)-phenyl]-urea]",23
2,"CCOc1cc(C)cc(-n2nc(C(F)(F)F)cc2CNC(=O)Nc2ccc(COCCO)c(F)c2)c1 [A135, 1-[[2-(3-Ethoxy-5-methyl-phenyl)-5-(trifluoromethyl)-2H-pyrazol-3-yl]-methyl]-3-[3-fluoro-4-(2-hydroxy-ethoxy-methyl)-phenyl]-urea]",15

# Same assay, conditions: @ 5µM; human VR1 in CHO K1 cells; capsaicin; relative to maximum inhibition with 10 µM capsazepine; read-out: inhibition (as a percentage), printed in column (f) Ki (human being) [nM] Cap
row,SMILES,inhibition at 5 µM [%]
1,"O=C(NCc1cc(C(F)(F)F)nn1-c1ccc(F)c(F)c1)Nc1ccc(COCCO)c(F)c1 [A132, 1-[[2-(3,4-Difluoro-phenyl)-5-(trifluoromethyl)-2H-pyrazol-3-yl]-methyl]-3-[3-fluoro-4-(2-hydroxy-ethoxy-methyl)-phenyl]-urea]",48
2,"CC(C)(C)c1cc(CNC(=O)Nc2ccc(C(CO)CO)c(F)c2)n(-c2cccc(Cl)c2)n1 [A152, 1-[[5-tert-Butyl-2-(3-chlorophenyl)-2H-pyrazol-3-yl]-methyl]-3-[3-fluoro-4-[2-hydroxy-1-(hydroxymethyl)-ethyl]-phenyl]-urea]",39
3,"O=C(NCc1cc(C(F)(F)F)nn1-c1cccc(Cl)c1)Nc1ccc(C(CO)CO)c(F)c1 [A153, 1-[[2-(3-Chlorophenyl)-5-(trifluoromethyl)-2H-pyrazol-3-yl]-methyl]-3-[3-fluoro-4-[2-hydroxy-1-(hydroxymethyl)-ethyl]-phenyl]-urea]",50
4,"CC(CO)(CO)c1ccc(NC(=O)NCc2cc(C(F)(F)F)nn2-c2cccc(Cl)c2)cc1 [A155, 1-[[2-(3-Chlorophenyl)-5-(trifluoromethyl)-2H-pyrazol-3-yl]-methyl]-3-[4-[2-hydroxy-1-(hydroxymethyl)-1-methyl-ethyl]-phenyl]-urea]",26
5,"CC(C)(C)c1cc(CNC(=O)Nc2ccc(C(C)(CO)CO)cc2)n(-c2cccc(Cl)c2)n1 [A157, 1-[[5-tert-Butyl-2-(3-chlorophenyl)-2H-pyrazol-3-yl]-methyl]-3-[4-[2-hydroxy-1-(hydroxymethyl)-1-methyl-ethyl]-phenyl]-urea]",35
6,"O=C(NCc1cc(C(F)(F)F)nn1-c1cccc(Cl)c1)Nc1ccc(C(O)(CO)CO)cc1 [A158, 1-[[2-(3-Chlorophenyl)-5-(trifluoromethyl)-2H-pyrazol-3-yl]-methyl]-3-[4-[1,2-dihydroxy-1-(hydroxymethyl)-ethyl]-phenyl]-urea]",13
7,"CC(C)(C)c1cc(CNC(=O)Nc2ccc(C(O)(CO)CO)cc2)n(-c2cccc(Cl)c2)n1 [A159, 1-[[5-tert-Butyl-2-(3-chlorophenyl)-2H-pyrazol-3-yl]-methyl]-3-[4-[1,2-dihydroxy-1-(hydroxymethyl)-ethyl]-phenyl]-urea]",24

# Same assay, conditions: human VR1 in CHO K1 cells; AG printed instead of a Ki
row,SMILES,(f) Ki (human being) [nM] Cap: agonist classification
1,"CC(C(=O)NCc1cc(C(C)(C)C)nn1-c1cccc(Cl)c1)c1ccc(CCO)c(F)c1 (stereo not drawn) [A139, N-[[5-tert-Butyl-2-(3-chlorophenyl)-2H-pyrazol-3-yl]-methyl]-2-[3-fluoro-4-(2-hydroxy-ethyl)-phenyl]-propionamide]",AG
2,"CC(C)(C)c1cc(CNC(=O)Nc2ccc(CCO)c(F)c2)n(-c2cccc(Cl)c2)n1 [A140, 1-[[5-tert-Butyl-2-(3-chlorophenyl)-2H-pyrazol-3-yl]-methyl]-3-[3-fluoro-4-(2-hydroxy-ethyl)-phenyl]-urea]",AG
3,"CC(C(=O)NCc1cc(C(C)(C)C)nn1-c1cccc(Cl)c1)c1ccc(C(O)CO)c(F)c1 (stereo not drawn) [A145, N-[[5-tert-Butyl-2-(3-chlorophenyl)-2H-pyrazol-3-yl]-methyl]-2-[4-(1,2-dihydroxy-ethyl)-3-fluoro-phenyl]-propionamide]",AG
4,"CC(C(=O)NCc1cc(C(C)(C)C)nn1-c1cccc(Cl)c1)c1ccc(C(O)CO)cc1 (stereo not drawn) [A147, N-[[5-tert-Butyl-2-(3-chlorophenyl)-2H-pyrazol-3-yl]-methyl]-2-[4-(1,2-dihydroxy-ethyl)-phenyl]-propionamide]",AG

# Same assay, conditions: read-out: (f) Ki (human being) [nM] Cap
row,SMILES,Ki [nM]
1,"CC(C)(C)c1cc(CNC(=O)Nc2ccc(COCCO)c(F)c2)n(-c2cccc(Cl)c2)n1 [A129, 1-[[5-tert-Butyl-2-(3-chlorophenyl)-2H-pyrazol-3-yl]-methyl]-3-[3-fluoro-4-(2-hydroxy-ethoxy-methyl)-phenyl]-urea]",43
2,"O=C(NCc1cc(C(F)(F)F)nn1-c1ccc(F)c(Cl)c1)Nc1ccc(COCCO)c(F)c1 [A130, 1-[[2-(3-Chloro-4-fluoro-phenyl)-5-(trifluoromethyl)-2H-pyrazol-3-yl]-methyl]-3-[3-fluoro-4-(2-hydroxy-ethoxy-methyl)-phenyl]-urea]",47
3,"O=C(NCc1cc(C(F)(F)F)nn1-c1cccc(F)c1)Nc1ccc(COCCO)c(F)c1 [A131, 1-[3-Fluoro-4-(2-hydroxy-ethoxy-methyl)-phenyl]-3-[[2-(3-fluorophenyl)-5-(trifluoromethyl)-2H-pyrazol-3-yl]-methyl]-urea]",56
4,"O=C(NCc1cc(C(F)(F)F)nn1-c1cccc(Cl)c1Cl)Nc1ccc(COCCO)c(F)c1 [A133, 1-[[2-(2,3-Dichloro-phenyl)-5-(trifluoromethyl)-2H-pyrazol-3-yl]-methyl]-3-[3-fluoro-4-(2-hydroxy-ethoxy-methyl)-phenyl]-urea]",12
5,"CC(C(=O)NCc1cc(C(F)(F)F)nn1-c1cccc(F)c1)c1ccc(CCO)c(F)c1 (stereo not drawn) [A136, 2-[3-Fluoro-4-(2-hydroxy-ethyl)-phenyl]-N-[[2-(3-fluorophenyl)-5-(trifluoromethyl)-2H-pyrazol-3-yl]-methyl]-propionamide]",40
6,"CC(C)c1cccc(-n2nc(C(F)(F)F)cc2CNC(=O)C(C)c2ccc(CCO)c(F)c2)c1 (stereo not drawn) [A137, 2-[3-Fluoro-4-(2-hydroxy-ethyl)-phenyl]-N-[[2-(3-isopropyl-phenyl)-5-(trifluoromethyl)-2H-pyrazol-3-yl]-methyl]-propionamide]",0.6
7,"CC(C(=O)NCc1cc(C(F)(F)F)nn1-c1cccc(Cl)c1)c1ccc(CCO)c(F)c1 (stereo not drawn) [A138, N-[[2-(3-Chlorophenyl)-5-(trifluoromethyl)-2H-pyrazol-3-yl]-methyl]-2-[3-fluoro-4-(2-hydroxy-ethyl)-phenyl]-propionamide]",8
8,"O=C(NCc1cc(C(F)(F)F)nn1-c1cccc(Cl)c1)Nc1ccc(CCO)c(F)c1 [A141, 1-[[2-(3-Chlorophenyl)-5-(trifluoromethyl)-2H-pyrazol-3-yl]-methyl]-3-[3-fluoro-4-(2-hydroxy-ethyl)-phenyl]-urea]",26
9,"CC(C(=O)NCc1cc(C(F)(F)F)nn1-c1cccc(Cl)c1)c1ccc(C(O)CO)cc1 (stereo not drawn) [A146, N-[[2-(3-Chlorophenyl)-5-(trifluoromethyl)-2H-pyrazol-3-yl]-methyl]-2-[4-(1,2-dihydroxy-ethyl)-phenyl]-propionamide]",13
10,"CC(C(=O)NCc1cc(C(F)(F)F)nn1-c1cccc(Cl)c1)c1ccc(C(O)CO)c(F)c1 (stereo not drawn) [A148, N-[[2-(3-Chlorophenyl)-5-(trifluoromethyl)-2H-pyrazol-3-yl]-methyl]-2-[4-(1,2-dihydroxy-ethyl)-3-fluoro-phenyl]-propionamide]",4
11,"CC(C)(C)c1cc(CNC(=O)Nc2ccc(C(O)CO)c(F)c2)n(-c2cccc(Cl)c2)n1 (stereo not drawn) [A150, 1-[[5-tert-Butyl-2-(3-chlorophenyl)-2H-pyrazol-3-yl]-methyl]-3-[4-(1,2-dihydroxy-ethyl)-3-fluoro-phenyl]-urea]",19
12,"O=C(NCc1cc(C(F)(F)F)nn1-c1cccc(Cl)c1)Nc1ccc(C(O)CO)c(F)c1 (stereo not drawn) [A151, 1-[[2-(3-Chlorophenyl)-5-(trifluoromethyl)-2H-pyrazol-3-yl]-methyl]-3-[4-(1,2-dihydroxy-ethyl)-3-fluoro-phenyl]-urea]",62
13,"CC(CO)(CO)c1ccc(NC(=O)NCc2cc(C(F)(F)F)nn2-c2cccc(Cl)c2)cc1F [A154, 1-[[2-(3-Chlorophenyl)-5-(trifluoromethyl)-2H-pyrazol-3-yl]-methyl]-3-[3-fluoro-4-[2-hydroxy-1-(hydroxymethyl)-1-methyl-ethyl]-phenyl]-urea]",117
14,"CC(C)(C)c1cc(CNC(=O)Nc2ccc(C(C)(CO)CO)c(F)c2)n(-c2cccc(Cl)c2)n1 [A156, 1-[[5-tert-Butyl-2-(3-chlorophenyl)-2H-pyrazol-3-yl]-methyl]-3-[3-fluoro-4-[2-hydroxy-1-(hydroxymethyl)-1-methyl-ethyl]-phenyl]-urea]",84
